Results reported in article PMC8140105 (Scientific Reports, 2021).

Columns and labels:
[1] = Brain-to-blood transport (efflux); assay type: in vivo, ICR-CD-1 mice; conditions: kout not significantly different from zero
Method: Briefly, 0.1 µmol of the lyophilized peptide was dissolved in 100 µL of phosphate buffer (pH 7.4, 25 mM). A Iodo-Gen coated tube (Thermo Scientific, Merelbeke, Belgium) was first of all rinsed with 1 mL of phosphate buffer. Subsequently, 50 µL of sodium iodide solution (1.1 µmol/mL) and 1 mCi of Na^125I solution (Perking Elmer, Zaventem, Belgium) were transferred into this Iodo-Gen coated tube. The oxidation reaction was allowed to proceed for six minutes at room temperature, after which the iodonium solution was transferred to 50 µL of peptide solution (1 mM). The iodination reaction of the peptide was allowed to proceed for another six minutes at room temperature. […]
We quantified the amount of peptide exported out of the brain as previously described. […] Then, the whole brain was collected, weighed and measured in a gamma counter for 5 min. Fifty µL of serum, which was obtained by centrifuging the collected blood at 10,000g during 15 min at 21 °C, and the background was also measured in a gamma counter. The efflux half-life was calculated from the linear regression of the natural logarithm of the residual radioactivity in brain versus time as follows:3 t1/2=ln(2)/kout where kout is defined as the efflux rate constant calculated as the negative value of the slope of the linear regression, applying first order kinetics.

[2] = Multiple time regression (MTR) analysis, blood-to-brain influx; assay type: in vivo, ICR-CD-1 mice
Method: (§1) Briefly, 0.1 µmol of the lyophilized peptide was dissolved in 100 µL of phosphate buffer (pH 7.4, 25 mM). A Iodo-Gen coated tube (Thermo Scientific, Merelbeke, Belgium) was first of all rinsed with 1 mL of phosphate buffer. Subsequently, 50 µL of sodium iodide solution (1.1 µmol/mL) and 1 mCi of Na^125I solution (Perking Elmer, Zaventem, Belgium) were transferred into this Iodo-Gen coated tube. The oxidation reaction was allowed to proceed for six minutes at room temperature, after which the iodonium solution was transferred to 50 µL of peptide solution (1 mM). The iodination reaction of the peptide was allowed to proceed for another six minutes at room temperature. Finally, the iodinated peptide was purified using a silver filter (Thermo Scientific, Merelbeke, Belgium).
In order to determine whether the peptide could enter the brain, in vivo multiple time regression (MTR) analysis was performed. ICR-CD-1 mice were anesthetized intraperitoneally using a 40% urethane solution (3 g/kg). […] At specified time points after injection (i.e. 1, 3, 5, 10, 12.5 and 15 min, with start and end in duplicate), blood was obtained from the carotid artery followed by decapitation of the mouse. The isolated brain was weighed and radioactivity measured in a gamma counter for 5 min (Wallac Wizard automatic gamma counter, Perkin Elmer, Shelton, CT, USA), as well as from 50 µL serum, which was obtained by centrifuging the collected blood at 10,000g for 15 min at 21 °C. The linear and biphasic modeling of the multiple time regression analysis was performed as previously described.

Capillary depletion = assay type: in vivo, ICR-CD-1 mice; conditions: 125I-labelled, i.v., mice, 10 min after injection, n = 2
Method: as §1
We performed capillary depletion to determine whether the peptides, taken up by the brain, completely crossed the capillary wall into the tissue rather than just being trapped by and in the endothelium. […] Subsequently, the brain was collected, weighed and the radioactivity measured in the gamma counter for 5 min. […] The resulting solution was weighed and centrifuged in a swinging bucket rotor at 5400g for 30 min at 4 °C, after measuring the radioactivity in the gamma counter. Pellet (capillaries) and supernatant (parenchyma and fat tissues) were also collected, weighed and measured in a gamma counter. […]

Caco-2 monolayer = test: Caco-2 assay (apparent permeability); assay type: in vitro ADME
Method: Caco-2 (Sigma-Aldrich, Diegem, Belgium) cells were grown in DMEM supplemented with 10% FBS, 1% NEAA and 1% penicillin/streptomycin solution. A total of 3 × 10^5 cells per filter were seeded in a 12-well plate and left for differentiation during 21–29 days (medium change every other day). Monolayer formation was checked by measuring the TEER values which should be above 0.30 kΩ × cm^2 [72]. After washing with Hank’s balanced salt solution, 400 µL of a 1 µM peptide solution was added to the apical side of the filter. After 30, 60, 90 and 120 min, 100 µL of the acceptor compartment was taken for UPLC-MS/MS analysis (Supplementary method S2). Linear curve fitting was used to calculate the apparent permeability coefficient (Papp), as sink conditions were achieved.
The reduction in acceptor concentration was also taken into account after every sampling. The cumulative amount in the acceptor compartment is defined as:2 Cumulativeamount=CrnVr+∑k=1n-1CrkVs with Crk = concentration at sample point k in acceptor compartment; Vr = volume in the receiver chamber; Vs = volume sampled; n = times sampled. […]
Supplementary method S2: UPLC-MS parameters Caco-2 assay
Aliquots of the acceptor compartment are analyzed using the following validated UPLC-
Column Acquity UPLC BEH C18 (2.1 × 100 mm, 1.7 µm) protected with a suitable guard
Sample temperature: 10°C.
A: 93/2/5 (v/v) H2O + ACN + DMSO + 0.1% FA
B: 2/93/5 (v/v) H2O + ACN + DMSO + 0.1% FA
Table 1: Quantifier of PapRIV.
Peptide Mother ion Daughter ion Collision energy MS
Injection volume: 10.0 µL
Table 2: Gradient program
Time (min) Mobile phase A (%) Mobile phase B (%)

## SDLPFEH [PapRIV, heptapeptide (SDLPFEH) quorum sensing peptide originating from the Bacillus cereus group; synthetic, purchased from GL Biochem]
[1]
  efflux from brain back to the circulation: no efflux
[2]; 125I-labelled, i.v. (jugular vein), mice, 1–15 min, biphasic model, mean ± standard error
  K1: 6.95 ± 6.25 µL/g/min
[2]; 125I-labelled, i.v., mice, biphasic model
  initial brain influx rate (Ki): 6.95 µL/g/min
[2]; 125I-labelled, i.v., mice, biphasic model, mean ± standard error
  Tissue brain distribution volume, Vg: 35.70 ± 61.73 µL/g
[2]; classification by influx rate
  brain influx class according to the classification system of Stalmans et al.: very high brain influx
Capillary depletion
  Capillary fraction: 13.08%
  Parenchymal fraction: 86.92%
Caco-2 monolayer; Caco-2, 4 °C, compared with Papp at 37 °C, n = 6 (Supplementary Fig. S1)
  Papp at 4 °C: comparable
Caco-2 monolayer; Caco-2, apical to basolateral, 1 µM peptide (400 µL) after washing with Hank's balanced salt solution, cells differentiated 21–29 days, TEER above 0.30 kΩ × cm^2, acceptor sampled 30, 60, 90, 120 min, 37 °C, UPLC-MS/MS, linear fit, n = 6
  Papp: 1.37 ± 0.21 × 10^–9 cm/s
Caco-2 monolayer; Caco-2, basolateral to apical, compared with apical-basolateral Papp, n = 6 (Supplementary Fig. S1)
  Papp in the opposite basolateral-apical direction: comparable
Caco-2 monolayer; Caco-2 assay, 1 µM, 120 min
  mass balance: < 2%
